Patent US20250275953A1, “VODOBATINIB FOR REDUCING PROGRESSION OF PARKINSON'S DISEASE” (Sun Pharma Advanced Research Company Ltd., priority 2022, published 2025)
“Also recorded” adds a separate entry of the source.

Experiments:
[1] = CSF concentration, Parkinson's disease patients, open label part, Day 14; assay type: in vivo, human; conditions: for mean CSF level: 2-3 h post dose, Day 14, PD patients; for Concentration in CSF Mean (SD): Day 14, 2-3 h post dose, PD patients open label; for Concentration in CSF Geo. Mean / Concentration in CSF Median: Day 14, PD patients open label
Description: A single CSF sample was collected at either 2 h or 3 h following the dose on Day 14.
(§1) Study NCT02970019 was a multi-center safety and tolerability study of vodobatinib in 60 subjects with Parkinson's Disease (diagnosed with PD according to the Brain Bank criteria of the United Kingdom Parkinson's Disease Society) who were randomized to receive placebo or various daily doses of vodobatinib for 14 days in a parallel assignment design with quadruple masking (participant, care provider, investigator, and outcomes assessor.) In study NCT02970019, consecutive cohorts of up to eight subjects received once-daily doses of 6, 12, 18, 24, 48, 96, 192, or 384 mg of study drug for 14 days, with six subjects in each cohort on vodobatinib and two subjects in each cohort on placebo. An alternating panel design was used such that subjects in the 6 and 18 mg cohorts were the same, and subjects in the 12 and 24 mg cohorts were the same, thus yielding 48 total individuals enrolled in the eight cohorts. There was a wash-out period of 14 days between each were studied in sequential ascending dose cohorts. In parallel to the double-blind cohorts, up to four subjects per dose cohort were enrolled in an open-label study of vodobatinib to receive 24, 48 or 96 mg once-daily doses of for 14 days. These subjects underwent lumbar puncture to collect CSF on Day 1, and 2-3 h after the last morning dose on Day 14. PK blood draws (for both double-blind and open label) were collected at pre-dose (˜30 min) and at 0.5, 1, 2, 4, 8, 12 and 24 h post-dose on Days 1 and 14.
Vodobatinib levels in plasma and CSF were determined using a fully validated LC-MS/MS assay with lower limits of quantitation (LLOQ) of 2.5 ng/mL and 0.05 ng/mL, respectively. PK analyses were performed using standard non-compartmental analysis with Phoenix® WinNonlin® software Version 6.4 to estimate the PK parameters Cmax, Tmax, AUCtau and Css. Descriptive statistics were used to characterize vodobatinib concentrations and PK parameters in plasma and CSF. Statistical calculations were performed with SAS software (Version 9.4, SAS Institute, Cary, North Carolina, USA).

Arg = Arg (Homo sapiens, UniProt P42684); assay: Biochemical kinase assay
Arg, sequence (P42684 whole entry): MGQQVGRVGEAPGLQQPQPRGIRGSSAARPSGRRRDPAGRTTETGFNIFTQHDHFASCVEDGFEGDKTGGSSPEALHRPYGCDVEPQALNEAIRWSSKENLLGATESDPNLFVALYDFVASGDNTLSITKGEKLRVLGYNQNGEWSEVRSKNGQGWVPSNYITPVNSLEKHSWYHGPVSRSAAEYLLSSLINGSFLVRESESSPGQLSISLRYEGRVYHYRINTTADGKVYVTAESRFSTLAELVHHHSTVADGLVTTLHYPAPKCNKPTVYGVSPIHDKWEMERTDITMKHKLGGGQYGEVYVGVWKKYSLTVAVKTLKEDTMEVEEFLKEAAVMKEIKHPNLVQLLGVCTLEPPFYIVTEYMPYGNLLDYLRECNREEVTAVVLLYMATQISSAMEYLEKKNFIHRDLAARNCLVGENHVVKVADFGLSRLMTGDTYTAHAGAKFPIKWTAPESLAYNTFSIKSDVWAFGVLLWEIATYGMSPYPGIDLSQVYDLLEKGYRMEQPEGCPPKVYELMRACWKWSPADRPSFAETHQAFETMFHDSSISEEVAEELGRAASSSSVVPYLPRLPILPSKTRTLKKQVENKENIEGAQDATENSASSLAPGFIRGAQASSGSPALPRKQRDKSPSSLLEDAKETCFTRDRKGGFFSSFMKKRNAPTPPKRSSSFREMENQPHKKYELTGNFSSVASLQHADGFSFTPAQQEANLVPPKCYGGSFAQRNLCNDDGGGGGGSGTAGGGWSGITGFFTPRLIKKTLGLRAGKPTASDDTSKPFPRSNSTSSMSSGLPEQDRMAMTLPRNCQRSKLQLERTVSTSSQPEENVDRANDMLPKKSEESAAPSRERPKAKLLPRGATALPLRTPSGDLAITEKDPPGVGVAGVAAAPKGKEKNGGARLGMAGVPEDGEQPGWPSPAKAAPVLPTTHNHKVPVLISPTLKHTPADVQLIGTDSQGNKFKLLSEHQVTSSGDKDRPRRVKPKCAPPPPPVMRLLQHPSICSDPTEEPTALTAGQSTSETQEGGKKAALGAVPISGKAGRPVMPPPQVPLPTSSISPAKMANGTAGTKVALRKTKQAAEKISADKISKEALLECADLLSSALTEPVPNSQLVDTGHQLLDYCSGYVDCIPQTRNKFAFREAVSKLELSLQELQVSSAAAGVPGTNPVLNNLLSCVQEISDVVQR
Excerpt: Conventional biochemical kinase assays, using radioactivity and fluorescence as readouts, were used to derive half maximal-inhibitory concentrations (IC50) values.

[2] = Safety and tolerability, Parkinson's disease patients (NCT02970019); assay type: in vivo, human; conditions: for Possibly related AEs by subject: daily for 14 days
Excerpt: Of these, 44 subjects completed the study. An additional 10 subjects were enrolled in the open label part of the study, of these, one subject was discontinued due to an AE of vomiting.
Safety population was comprised of 48 subjects (not including those in the open label cohorts) and PK population was comprised of 36 subjects from double blind part and 10 subjects from open label part of the study. No subjects were discontinued from the study due to protocol deviation.
as §1

Cc1ccc(C(=O)NNC(=O)c2c(C)cccc2Cl)cc1C#Cc1cnc2ccccc2c1 [N′-(2-chloro-6-methylbenzoyl)-4-methyl-3-[2-(3-quinolyl)ethynyl]-benzohydrazide]
mean CSF level ([1]; 24 mg): 1.5 nM | Concentration in CSF Mean (SD) ([1]; 24 mg): 0.6550 (0.2447) ng/mL | Concentration in CSF Mean (SD) ([1]; 24 mg, listed as vodobatinib): 0.66 ng/mL | Concentration in CSF Geo. Mean ([1]; 24 mg): 0.6317 ng/mL | Concentration in CSF Median ([1]; 24 mg): 0.6550 ng/mL | mean CSF level ([1]; 48 mg): 1.5 nM | Concentration in CSF Mean (SD) ([1]; 48 mg): 0.6683 (0.744) ng/mL | Concentration in CSF Mean (SD) ([1]; 48 mg, listed as vodobatinib): 0.67 ng/mL | Concentration in CSF Geo. Mean ([1]; 48 mg): 0.8868 ng/mL | Concentration in CSF Median ([1]; 48 mg): 0.5350 ng/mL | mean CSF level ([1]; 96 mg): 2.4 nM | Concentration in CSF Mean (SD) ([1]; 96 mg): 1.1193 (0.4533) ng/mL | Concentration in CSF Mean (SD) ([1]; 96 mg, listed as vodobatinib): 1.1 ng/mL | Concentration in CSF Geo. Mean ([1]; 96 mg): 1.0482 ng/mL | Concentration in CSF Median ([1]; 96 mg): 1.0850 ng/mL | IC50 (Arg): 0.8 nM | n/N (number of AEs per number of subjects in dose group) ([2]; 6 mg DB): 6 mg DB (5/8) | Possibly related AEs by subject ([2]; 6 mg DB, listed as Vodobatinib): Increased appetite, feet & ankle weakness, infraorbital puffiness,; also recorded: increased tremor and dry eyes | n/N (number of AEs per number of subjects in dose group) ([2]; 12 mg DB): 12 mg DB (3/8) | Possibly related AEs by subject ([2]; 12 mg DB, listed as Vodobatinib): Light-headedness; also recorded: Decreased balance & decreased gait | n/N (number of AEs per number of subjects in dose group) ([2]; 18 mg DB): 18 mg DB (3/6) | Possibly related AEs by subject ([2]; 18 mg DB): New onset atrial fibrillation and orthostasis (moderate severity) | n/N (number of AEs per number of subjects in dose group) ([2]; 24 mg DB): 24 mg DB (1/8) | Possibly related AEs by subject ([2]; 24 mg DB): None | n/N (number of AEs per number of subjects in dose group) ([2]; 24 mg OL): 24 mg OL (3/3) | Possibly related AEs by subject ([2]; 24 mg OL, listed as Vodobatinib): Vertigo, headache, nausea, weakness, vomiting (all moderate | n/N (number of AEs per number of subjects in dose group) ([2]; 48 mg DB): 48 mg DB (2/8) | Possibly related AEs by subject ([2]; 48 mg DB): None | n/N (number of AEs per number of subjects in dose group) ([2]; 96 mg DB): 96 mg DB (2/8) | Possibly related AEs by subject ([2]; 96 mg DB, listed as Vodobatinib): Abdominal pain and soft stool; also recorded: Brain fog, worsening of right lower leg cramps | n/N (number of AEs per number of subjects in dose group) ([2]; 96 mg OL): 96 mg OL (2/4) | Possibly related AEs by subject ([2]; 96 mg OL, listed as Vodobatinib): Dry eyes; also recorded: Worsening of muscle cramps (“probably related”) | n/N (number of AEs per number of subjects in dose group) ([2]; 192 mg DB): 192 mg DB (3/8) | Possibly related AEs by subject ([2]; 192 mg DB, listed as Vodobatinib): Mild rash, epigastric pain; also recorded: Somnolence, worsening of left upper extremities resting tremor; also recorded: Erythematous, pruritic rash on torso and head | subjects discontinued due to AEs ([2]; 192 mg, 384 mg (double-blind), 24 mg (open-label)): Three | changes in laboratory values ([2]; PD patients): no clinically significant drug related changes | changes in the QT interval ([2]; PD patients): no drug-related changes | overall safety and tolerability ([2]; PD patients): acceptable safety and tolerability | changes in laboratory values ([2]; PD patients, listed as vodobatinib): no clinically significant drug-related changes | number of TEAEs, overall ([2]; PD subjects, 14 days): 63 | subjects reporting TEAEs, overall ([2]; PD subjects, 14 days): 32 | Most common treatment related TEAEs (>1 subject) ([2]; double-blind part): rash, abdominal pain and tremor | number of TEAEs ([2]; double-blind part): 42 | subjects reporting TEAEs ([2]; double-blind part): Twenty-three | subjects reporting TEAEs ([2]; double-blind, 6 mg cohort): 3 | subjects reporting TEAEs ([2]; double-blind, 12 mg cohort): 3 | subjects reporting TEAEs ([2]; double-blind, 18 mg cohort): 2 | subjects reporting TEAEs ([2]; double-blind, 24 mg cohort): one | subjects reporting TEAEs ([2]; double-blind, 48 mg cohort): one | subjects reporting TEAEs ([2]; double-blind, 96 mg cohort): 2 | subjects reporting TEAEs ([2]; double-blind, 192 mg cohort): 3 | subjects reporting TEAEs ([2]; double-blind, 384 mg cohort): 5 | most severe TEAE ([2]; one subject, 48 mg group, treatment unrelated, resolved): asthenia of grade 3 severity | number of TEAEs ([2]; open-label part): 21 | subjects reporting TEAEs ([2]; open-label part): Nine | number of TEAEs ([2]; open-label, 24 mg cohort (3 subjects)): 10 | number of TEAEs ([2]; open-label, 48 mg cohort (3 subjects)): 6 | number of TEAEs ([2]; open-label, 96 mg cohort (3 subjects)): 5 | number of treatment related TEAEs ([2]; overall): 35 | subjects reporting treatment related TEAEs ([2]; overall): Twenty-one
